Bridge positions count the residues as written; N and C are the ends. Square brackets hold non-standard residues; d marks the D form. Peptide text beside a SMILES is read from it. Hyp = O=C(O)[C@@H]1C[C@@H](O)CN1; hCys = N[C@@H](CCS)C(=O)O
Molecular target: T1, bovine trypsin (Bos taurus, UniProt P00760)
T1 sequence (P00760 24-246): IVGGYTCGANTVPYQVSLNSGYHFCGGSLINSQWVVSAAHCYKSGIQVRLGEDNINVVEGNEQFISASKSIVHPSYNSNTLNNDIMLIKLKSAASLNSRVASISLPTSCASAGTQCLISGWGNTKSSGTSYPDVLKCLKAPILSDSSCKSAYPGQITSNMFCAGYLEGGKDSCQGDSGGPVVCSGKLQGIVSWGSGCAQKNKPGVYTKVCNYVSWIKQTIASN
Experiment: Trypsin inhibitory activity of peptides (BApNA hydrolysis, OD405; IC50, Ki, residual activity)
Type: biochemical
Conditions: for IC50: trypsin 50 nM, BApNA 1.22 mM, read-out: IC50
How it was run: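 Trypsin (50 nM final) preincubated with peptides at 37 °C in 50 mM Tris-HCl pH 7.8, 20 mM CaCl2; BApNA added (1.22 mM final), 260 min at 37 °C, then OD405 read. Residual activity from enzyme-only and substrate-only controls; IC50 fitted and converted to Ki via Ki=IC50/(1+S/Km), Km measured separately for BApNA.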

Structure (SMILES): CC[C@H](C)[C@@H]1NC(=O)[C@@H]2CCCN2C(=O)[C@@H]2CCCN2C(=O)[C@H]([C@@H](C)CC)NC(=O)[C@H](CO)NC(=O)[C@H](CCCCN)NC(=O)[C@H]([C@@H](C)O)NC(=O)[C@H](C)NC(=O)[C@H](CCCNC(=N)N)NC(=O)CNC(=O)[C@@H](N)CCSSCC[C@@H](C(=O)O)NC(=O)[C@H](Cc2ccccc2)NC(=O)[C@H](C)NC1=O [BT29] (H-[hCys]GRATKSIPPIAF[hCys]-OH; disulfide 1-14; N-terminus assumed)
- inhibitory activity against trypsin (in words): still maintained good inhibitory activity against trypsin

Structure (SMILES): CC[C@H](C)[C@@H]1NC(=O)[C@@H]2CCCN2C(=O)[C@@H]2CCCN2C(=O)[C@H]([C@@H](C)CC)NC(=O)[C@H](CO)NC(=O)[C@H](CCCCN)NC(=O)[C@H]([C@@H](C)O)NC(=O)[C@H](C)NC(=O)[C@H](CCCNC(=N)N)NC(=O)CNC(=O)[C@@H](N)CSSC[C@@H](C(=O)O)NC(=O)[C@H](Cc2ccccc2)NC1=O [BT30] (H-CGRATKSIPPIFC-OH; disulfide 1-13 (inferred); N-terminus and C-terminus assumed)
- IC50: > 50 µM

Structure (SMILES): CC[C@H](C)[C@@H]1NC(=O)[C@H](CO)NC(=O)[C@H](CCCCN)NC(=O)[C@H]([C@@H](C)O)NC(=O)[C@H](C)NC(=O)[C@H](CCCNC(=N)N)NC(=O)CNC(=O)[C@@H](N)CSSC[C@@H](C(=O)O)NC(=O)[C@H](Cc2ccccc2)NC(=O)[C@H](C)NC(=O)[C@@H]2CCCN2C(=O)[C@@H]2CCCN2C1=O [BT31] (H-CGRATKSIPPAFC-OH; disulfide 1-13 (inferred); N-terminus and C-terminus assumed)
- IC50: > 50 µM

Structure (SMILES): CC[C@H](C)[C@@H]1NC(=O)[C@@H]2CCCN2C(=O)[C@@H]2CCCN2C(=O)[C@H]([C@@H](C)CC)NC(=O)[C@H](CO)NC(=O)[C@H](CCCCN)NC(=O)[C@H]([C@@H](C)O)NC(=O)[C@H](C)NC(=O)[C@H](CCCNC(=N)N)NC(=O)CNC(=O)[C@@H](N)CSSC[C@@H](C(=O)O)NC(=O)CNC(=O)[C@H](Cc2ccccc2)NC(=O)[C@H](C)NC1=O [BT32] (H-CGRATKSIPPIAFGC-OH; disulfide 1-15; N-terminus and C-terminus assumed)
- inhibitory activity against trypsin (in words): still maintained good inhibitory activity against trypsin

Structure (SMILES): CC[C@H](C)[C@@H]1NC(=O)[C@@H]2CCCN2C(=O)[C@@H]2CCCN2C(=O)[C@H]([C@@H](C)CC)NC(=O)[C@H](CO)NC(=O)[C@H](CCCCN)NC(=O)[C@H]([C@@H](C)O)NC(=O)[C@H](C)NC(=O)[C@H](CCCNC(=N)N)NC(=O)CNC(=O)[C@@H](N)CCSSCC[C@@H](C(=O)O)NC(=O)CNC(=O)[C@H](Cc2ccccc2)NC(=O)[C@H](C)NC1=O [BT33] (H-[hCys]GRATKSIPPIAFG[hCys]-OH; disulfide 1-15; N-terminus assumed)
- inhibitory activity against trypsin (in words): still maintained good inhibitory activity against trypsin

Structure (SMILES): CC[C@H](C)[C@@H]1NC(=O)[C@H](CO)NC(=O)[C@H](CCCCN)NC(=O)[C@H]([C@@H](C)O)NC(=O)[C@H](C)NC(=O)[C@H](CCCNC(=N)N)NC(=O)CNC(=O)[C@@H](N)CSSC[C@@H](C(=O)O)NC(=O)[C@H](CCCNC(=N)N)NC(=O)[C@H](C)NC(=O)[C@H](CCC(N)=O)NC(=O)[C@@H]2CCCN2C(=O)[C@@H]2CCCN2C1=O [BT34] (H-CGRATKSIPPQARC-OH; disulfide 1-14)
- IC50: > 50 µM

Structure (SMILES): CC[C@H](C)[C@@H]1NC(=O)[C@H](CO)NC(=O)[C@H](CCCCN)NC(=O)[C@H]([C@@H](C)O)NC(=O)[C@H](Cc2c[nH]c3ccccc23)NC(=O)CNC(=O)[C@@H](N)CSSC[C@@H](C(=O)O)NC(=O)[C@@H]2CCCN2C(=O)[C@H](CCCCN)NC(=O)[C@@H]2CCCN2C(=O)[C@@H]2CCCN2C1=O [BT37] (H-CGWTKSIPPKPC-OH; disulfide 1-12)
- IC50: > 50 µM

Structure (SMILES): CC[C@H](C)[C@@H]1NC(=O)[C@H](CO)NC(=O)[C@H](CCCCN)NC(=O)[C@H]([C@@H](C)O)NC(=O)[C@H](Cc2c[nH]c3ccccc23)NC(=O)[C@H](CCCNC(=N)N)NC(=O)CNC(=O)[C@@H](N)CSSC[C@@H](C(=O)O)NC(=O)[C@@H]2CCCN2C(=O)[C@H](CCCCN)NC(=O)[C@@H]2CCCN2C(=O)[C@@H]2CCCN2C1=O [BT38] (H-CGRWTKSIPPKPC-OH; disulfide 1-13 (inferred); N-terminus and C-terminus assumed)
- IC50: > 50 µM

Structure (SMILES): CC[C@H](C)[C@@H]1NC(=O)[C@H](CO)NC(=O)[C@H](CCCCN)NC(=O)[C@H]([C@@H](C)O)NC(=O)[C@H](Cc2c[nH]c3ccccc23)NC(=O)[C@H](CCCNC(=N)N)NC(=O)CNC(=O)[C@@H](N)CSSC[C@@H](C(=O)O)NC(=O)[C@H](Cc2ccccc2)NC(=O)[C@H](C)NC(=O)[C@@H]2CCCN2C(=O)[C@@H]2CCCN2C1=O [BT39] (H-CGRWTKSIPPAFC-OH; disulfide 1-13 (inferred); N-terminus and C-terminus assumed)
- IC50: > 50 µM

Structure (SMILES): CC[C@H](C)[C@@H]1NC(=O)[C@@H]2CCCN2C(=O)[C@@H]2CCCN2C(=O)[C@H]([C@@H](C)CC)NC(=O)[C@H](CO)NC(=O)[C@H](CCCCN)NC(=O)[C@H]([C@@H](C)O)NC(=O)[C@H](Cc2c[nH]c3ccccc23)NC(=O)[C@H](CCCNC(=N)N)NC(=O)CNC(=O)[C@@H](N)CSSC[C@@H](C(=O)O)NC(=O)[C@H](Cc2ccccc2)NC1=O [BT40] (H-CGRWTKSIPPIFC-OH; disulfide 1-13 (inferred); N-terminus and C-terminus assumed)
- IC50: > 50 µM

Structure (SMILES): CC[C@H](C)[C@@H]1NC(=O)[C@H](CCCCN)NC(=O)[C@@H]2CCCN2C(=O)[C@@H](NC(=O)[C@H](CCCNC(=N)N)NC(=O)CN)CSSC[C@@H](C(=O)N[C@@H](Cc2ccccc2)C(=O)O)NC(=O)[C@H](CCCCN)NC(=O)[C@H](CCCCN)NC(=O)[C@H](CC(C)C)NC1=O [BT41] (H-GRCPKILKKCF-OH; disulfide 3-10)
- IC50: > 50 µM

Structure (SMILES): CC[C@H](C)[C@@H]1NC(=O)[C@H](CCCCN)NC(=O)[C@@H]2CCCN2C(=O)[C@H](C)NC(=O)[C@H](CCCNC(=N)N)NC(=O)CNC(=O)[C@@H](N)CSSC[C@@H](C(=O)N[C@@H](Cc2ccccc2)C(=O)O)NC(=O)[C@H](CCCCN)NC(=O)[C@H](CCCCN)NC(=O)[C@H](CC(C)C)NC1=O [BT42] (H-CGRAPKILKKCF-OH; disulfide 1-11)
- IC50: > 50 µM

Structure (SMILES): CC[C@H](C)[C@@H]1NC(=O)[C@H](CCCCN)NC(=O)[C@@H]2CCCN2C(=O)[C@@H](NC(=O)[C@H](CCCNC(=N)N)NC(=O)CN)CSSC[C@@H](C(=O)N[C@@H](Cc2ccccc2)C(=O)O)NC(=O)[C@H](CCCNC(=N)N)NC(=O)[C@H](CCC(N)=O)NC(=O)[C@H](CC(C)C)NC1=O [BT43] (H-GRCPKILQRCF-OH; disulfide 3-10)
- IC50: > 50 µM

Structure (SMILES): CC[C@H](C)[C@@H]1NC(=O)[C@H](CCCCN)NC(=O)[C@@H]2CCCN2C(=O)[C@H](C)NC(=O)[C@H](CCCNC(=N)N)NC(=O)CNC(=O)[C@@H](N)CSSC[C@@H](C(=O)N[C@@H](Cc2ccccc2)C(=O)O)NC(=O)[C@H](CCCNC(=N)N)NC(=O)[C@H](CCC(N)=O)NC(=O)[C@H](CC(C)C)NC1=O [BT44] (H-CGRAPKILQRCF-OH; disulfide 1-11 (inferred); N-terminus and C-terminus assumed)
- IC50: > 50 µM

Structure (SMILES): CC[C@H](C)[C@@H]1NC(=O)[C@@H]2CCCN2C(=O)[C@@H]2CCCN2C(=O)[C@H]([C@@H](C)CC)NC(=O)[C@H](CO)NC(=O)[C@H](CCCCN)NC(=O)[C@H]([C@@H](C)O)NC(=O)[C@@H](NC(=O)[C@@H](N)CCCNC(=N)N)CSSC[C@@H](C(=O)N[C@@H](Cc2ccccc2)C(=O)O)NC1=O [BT45] (H-RCTKSIPPICF-OH; disulfide 2-10; C-terminus assumed)
- Residual trypsin activity (peptide 0.000098 μM): 99.3 ± 5.3%
- Residual trypsin activity (peptide 0.00098 μM): 104.3 ± 6.0%
- Residual trypsin activity (peptide 0.0098 μM): 100.7 ± 5.0%
- Residual trypsin activity (peptide 0.02439 μM): 67.4 ± 2.6%
- Residual trypsin activity (peptide 0.0390 μM): 42.7 ± 2.9%
- Residual trypsin activity (peptide 0.0488 μM): 27.3 ± 5.5%
- Residual trypsin activity (peptide 0.07317 μM): 10.8 ± 1.6%
- Residual trypsin activity (peptide 0.098 μM): 6.3 ± 0.4%
- Residual trypsin activity (peptide 0.98 μM): 0.4 ± 0.0%
- Residual trypsin activity (peptide 9.76 μM): 0.0 ± 0.0%
- IC50: 0.03 µM

Structure (SMILES): CC[C@H](C)[C@@H]1NC(=O)[C@@H]2CCCN2C(=O)[C@@H]2CCCN2C(=O)[C@H]([C@@H](C)CC)NC(=O)[C@H](CO)NC(=O)[C@H](CCCCN)NC(=O)[C@H]([C@@H](C)O)NC(=O)[C@H](C)NC(=O)[C@H](CCCNC(=N)N)NC(=O)[C@@H]2C[C@@H](O)CN2C(=O)[C@@H](N)CSSC[C@@H](C(=O)N[C@@H](Cc2ccccc2)C(=O)O)NC1=O [BT46] (H-C[Hyp]RATKSIPPICF-OH; disulfide 1-12; C-terminus assumed)
- inhibitory activity against trypsin (in words): excellent trypsin inhibitory activities
- Ki (Ki=IC50/(1+S/Km), Km 0.33 mM, read-out: Ki): 10 nM
- IC50: 0.07 µM

From patent publication US20230416329A1, “A PEPTIDE WITH DISULFIDE BONDS AND INHIBITORY ACTIVITY AGAINST SERINE PROTEASES, DERIVED HYBRID PEPTIDES THEREOF, AND USES THEREOF” (INSTITUTE OF MATERIA MEDICA , CHINESE ACADEMY OF MEDICAL …, priority 2020, published 2023)
